As usually defined, the IC50 is the concentration at which inhibition is half-maximal.

In the assay the test system is HCT-116 cells. In words: Clonogenic survival assay with HCT-116 cells. As to conditions: Homo sapiens, 24 h exposure, read-out: HCT-116 IC50 clonogenic 24 h. It is filed as cell-based. The procedure:
This assay was used to determine the concentration of a compound that results irreversible loss of viability after a specified period of exposure.
Media (RPMI-1640, 10% FCS, pen/strep) was pre-warnied to 37° C. in a water bath. Cells were incubated and grown at 37° C., 5% CO2. Cells were recovered by trypsinization from sub-confluent plates and counted using a hemocytometer. 1×10^4 cells were plated in 25 mls of media in a 15 cm tissue culture dish. 14 plates were set up for each test compound, and were incubated overnight at 37° C. The compound was diluted into media at 7 concentrations and the media on the cells was replaced with that containing the test compound. Two plates were set up for each concentration of the compound to be tested, as well as two control plates without compound. […] Colonies were stained with crystal violet solution (0.4% crystal violet, 20 % ethanol) for 5 minutes, washed twice with distilled water, and counted.

Consider `CC(C)N1CCN(Cc2cc(-c3[nH]nc4c3C(=O)c3c(NC(=O)NN5CCOCC5)cccc3-4)ccc2O)CC1.Cl.Cl.Cl.Cl` [K], for which the IC50 was less than 1 µM.

The values above are taken from patent US20050090471A1, “Inhibitors of cyclin-dependent kinases, compositions and uses related thereto” (GPC Biotech, Inc, priority 2001, published 2005).
